Data: US8273383B2, “Methods and compositions for treatment of preeclampsia” (Children's Medical Center Corporation, priority 2004, dated 2012)
Entries after “also recorded” stand apart in the source; their conditions may differ.

Legend:
[1] = system: placenta cytotrophoblast cell line (HTR); experiment: Secretion of VEGF, sFLT-1 and PlGF by HTR cytotrophoblast cell line under hypoxia; format: cell-based
Protocol: (§1) We have shown that 5 μM, 10 μM and 30 μM of 2-ME can reduce the secreted levels of VEGF up to 75% in a dose dependent manner in a placenta cytotrophoblast cell line (HTR) under hypoxia. […] Similarly, 5 μM, 10 μM and 30 μM of 2-ME can reduce the secreted sFLT-1 levels by up to 50% or more in a dose dependent manner in the same cell lines under hypoxia (see FIGS. 1-3).

BeWo cells = experiment: Secretion of VEGF, sFLT-1 and PlGF by BeWo cytotrophoblast cell line under hypoxia; format: cell-based; details: 5 μM, 10 μM and 30 μM 2-ME
[2] = system: HTR-8/SV neo trophoblast cells; experiment: Blot of protein expression in trophoblast cell lysates under hypoxic conditions; format: cell-based; details: 5 μM, 10 μM and 30 μM 2-ME
Protocol: FIG. 5 is a blot showing that 2-methoxyestradiol treatment of HTR-8/SV neo trophoblast cells downregulations HIF-1α, VEGF165, Flt-1, and sFlt-1 expression in cell lysates under hypoxic conditions.
as §1

sFLT-1 and VEGF = experiment: Blood levels of sFLT-1 and VEGF in normal mice treated with 2-ME; format: in vivo; details: twice daily 30 μM 2-ME, blood samples
Protocol: Normal mice were treated with 2-ME twice daily with 30 μM of 2-ME. Blood samples were then obtained and assayed for the level of sFLT-1 and VEGF. […] The 30 μM concentration represents approximately the normal physiological level of 2-ME that is found in the blood of pregnant women in the late second trimester or early third trimester through the end of pregnancy. At the end of a pregnancy, levels of 2-ME in non-preeclamptic subjects drops back to non pregnant levels, which are approximately 1-5 μM.

[3] = system: cytotrophoblasts from the placenta; experiment: Expression of HIF-1α and angiogenic factors in cytotrophoblasts from the placenta (summary statement); format: cell-based
[4] = system: tumor and non-tumor cell lines; details: wide variety of tumor and non-tumor cell lines; cited from earlier work
[5] = administered orally; cited from earlier work
HIF-1 = details: cited from earlier work
[6] = 5 μM, 10 μM and 30 μM 2-ME, dose dependent, HTR cell line, hypoxia

COc1cc2c(cc1O)CC[C@@H]1[C@@H]2CC[C@]2(C)[C@@H](O)CC[C@@H]12 [2-ME, 2-methoxyestradiol]
PlGF secretion levels ([1]; 5 μM, 10 μM and 30 μM 2-ME, HTR cell line, hypoxia): reduce PlGF secretion levels in a dose dependent manner | PlGF secretion levels ([1]; 5 μM, 10 μM and 30 μM 2-ME, HTR cell line, hypoxia, listed as 2-methoxyestradiol): reduction of PlGF secretion | reduction of secreted levels of VEGF [1, 6]: up to 75% | reduction of secreted sFLT-1 levels [1, 6]: ≥ 50% | sFLT-1 production / secretion ([1]; HTR / HTR-8/SV neo cells): reduction of sFLT-1 production | secretion of VEGF ([1]; HTR / HTR-8/SV neo cells): reduces secretion of VEGF; also recorded: reduction | PlGF secretion levels (BeWo cells): reduce PlGF secretion levels in a dose dependent manner | reduction of secreted sFLT-1 levels (BeWo cells; dose dependent): ≥ 50% | expression level of Flt-1 in cell lysates [2]: downregulated | expression level of HIF-1α in cell lysates [2]: downregulated | expression level of VEGF165 in cell lysates [2]: downregulated | expression level of sFlt-1 in cell lysates [2]: downregulated | expression level of Flt-1 in cell lysates ([2]; listed as 2-methoxyestradiol): downregulations | expression level of HIF-1α in cell lysates ([2]; listed as 2-methoxyestradiol): downregulations | expression level of VEGF165 in cell lysates ([2]; listed as 2-methoxyestradiol): downregulations | expression level of sFlt-1 in cell lysates ([2]; listed as 2-methoxyestradiol): downregulations | bound VEGF (sFLT-1 and VEGF): decrease in bound VEGF | reduction in sFLT-1 expression (sFLT-1 and VEGF): 50% | expression of HIF-1α [3]: decreases | expression of VEGF, PlGF, VEGF Receptor 1 (VEGFR1) and sFLT-1 [3]: dramatic decrease | anti-proliferative activity [4]: potent | apoptosis [4]: induces apoptosis | antitumor and antiangiogenic activity [5]: exhibits antitumor and antiangiogenic activity | toxicity [5]: little or no toxicity | HIF-1 induced transcriptional activation of VEGF expression (HIF-1): inhibits | HIF-1 level (HIF-1; posttranscriptional level): downregulate
